Data from PubChem BioAssay (NCI).
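1) Cells in 96-well plates. 2) Compound, 48 h, 5 concentrations. 3) Linear interpolation between surrounding doses. 4) Unreached endpoint = highest concentration. Definition used: TGI = concentration required for complete inhibition of growth.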

Assays:
Experiment in all cases: DTP human tumour cell line panel, 48 h
CAKI-1 renal = system: CAKI-1 renal
SK-MEL-2 melanoma = system: SK-MEL-2 melanoma
PC-3 prostate = system: PC-3 prostate
A549 NSCLC = system: A549 NSCLC
HS 578T breast = system: HS 578T breast
SK-MEL-28 melanoma = system: SK-MEL-28 melanoma
HT29 colon = system: HT29 colon
COLO 205 colon = system: COLO 205 colon
SNB-75 CNS = system: SNB-75 CNS
SW-620 colon = system: SW-620 colon
SR leukemia = system: SR leukemia
MCF7 breast = system: MCF7 breast
SF-295 CNS = system: SF-295 CNS
HCT-15 colon = system: HCT-15 colon
OVCAR-8 ovarian = system: OVCAR-8 ovarian
BT-549 breast = system: BT-549 breast
M14 melanoma = system: M14 melanoma
UACC-62 melanoma = system: UACC-62 melanoma
HCT-116 colon = system: HCT-116 colon
ACHN renal = system: ACHN renal
MDA-N = system: MDA-N
UO-31 renal = system: UO-31 renal
SN12C renal = system: SN12C renal
NCI/ADR-RES ovarian = system: NCI/ADR-RES ovarian
SNB-19 CNS = system: SNB-19 CNS
MDA-MB-231 breast = system: MDA-MB-231 breast
HL-60(TB) leukemia = system: HL-60(TB) leukemia
OVCAR-5 ovarian = system: OVCAR-5 ovarian
KM12 colon = system: KM12 colon
SF-268 CNS = system: SF-268 CNS
OVCAR-3 ovarian = system: OVCAR-3 ovarian
786-0 renal = system: 786-0 renal
TK-10 renal = system: TK-10 renal
MALME-3M melanoma = system: MALME-3M melanoma
SK-OV-3 ovarian = system: SK-OV-3 ovarian
UACC-257 melanoma = system: UACC-257 melanoma
A498 renal = system: A498 renal
SK-MEL-5 melanoma = system: SK-MEL-5 melanoma
OVCAR-4 ovarian = system: OVCAR-4 ovarian
MDA-MB-435 = system: MDA-MB-435
MOLT-4 leukemia = system: MOLT-4 leukemia
NCI-H460 lung = system: NCI-H460 lung
HOP-62 NSCLC = system: HOP-62 NSCLC
NCI-H23 lung = system: NCI-H23 lung
U251 CNS = system: U251 CNS
RPMI-8226 leukemia = system: RPMI-8226 leukemia
LOX IMVI melanoma = system: LOX IMVI melanoma
IGROV1 ovarian = system: IGROV1 ovarian
K-562 leukemia = system: K-562 leukemia
SF-539 CNS = system: SF-539 CNS

With `CS(=O)(=O)OCCN1CCC2(CC1)SSC1(CCN(CCOS(C)(=O)=O)CC1)S2` the TGI (CAKI-1 renal) was 44.9 µM, the TGI (SK-MEL-2 melanoma) was > 100 µM and the TGI (PC-3 prostate) was > 100 µM. For the same compound, the TGI (A549 NSCLC) was > 100 µM, the TGI (HS 578T breast) was > 100 µM and the TGI (SK-MEL-28 melanoma) was > 100 µM. For the same compound, the TGI (HT29 colon) was > 100 µM, the TGI (COLO 205 colon) was > 100 µM and the TGI (SNB-75 CNS) was > 100 µM. The TGI (SW-620 colon) was > 100 µM, the TGI (SR leukemia) was 65.9 µM and the TGI (MCF7 breast) was 44.9 µM. For the same compound, the TGI (SF-295 CNS) was > 100 µM, the TGI (HCT-15 colon) was > 100 µM and the TGI (OVCAR-8 ovarian) was > 100 µM. The TGI (BT-549 breast) was > 100 µM, the TGI (M14 melanoma) was > 100 µM and the TGI (UACC-62 melanoma) was > 100 µM. The TGI (HCT-116 colon) was > 100 µM, the TGI (ACHN renal) was > 100 µM and the TGI (MDA-N) was > 100 µM. For the same compound, the TGI (UO-31 renal) was > 100 µM, the TGI (SN12C renal) was > 100 µM and the TGI (NCI/ADR-RES ovarian) was > 100 µM. For the same compound, the TGI (SNB-19 CNS) was > 100 µM, the TGI (MDA-MB-231 breast) was > 100 µM and the TGI (HL-60(TB) leukemia) was 59.7 µM. For the same compound, the TGI (OVCAR-5 ovarian) was 93.2 µM, the TGI (KM12 colon) was > 100 µM and the TGI (SF-268 CNS) was 58.1 µM. For the same compound, the TGI (OVCAR-3 ovarian) was 99.7 µM, the TGI (786-0 renal) was > 100 µM and the TGI (TK-10 renal) was 55.8 µM. The TGI (MALME-3M melanoma) was 68.1 µM, the TGI (SK-OV-3 ovarian) was > 100 µM and the TGI (UACC-257 melanoma) was > 100 µM. For the same compound, the TGI (A498 renal) was 56.1 µM, the TGI (SK-MEL-5 melanoma) was > 100 µM and the TGI (OVCAR-4 ovarian) was > 100 µM. The TGI (MDA-MB-435) was > 100 µM, the TGI (MOLT-4 leukemia) was > 100 µM and the TGI (NCI-H460 lung) was > 100 µM. For the same compound, the TGI (HOP-62 NSCLC) was > 100 µM, the TGI (NCI-H23 lung) was > 100 µM and the TGI (U251 CNS) was > 100 µM. For the same compound, the TGI (RPMI-8226 leukemia) was 29.6 µM, the TGI (LOX IMVI melanoma) was 97.8 µM and the TGI (IGROV1 ovarian) was > 100 µM. The TGI (K-562 leukemia) was > 100 µM and the TGI (SF-539 CNS) was > 100 µM.
